Bridge positions count the residues as written; N and C are the ends. Ends that are not written are not given here. * marks the point of attachment. Palmitoyl = CCCCCCCCCCCCCCCC(=O)*
What was measured:
[1] = biological target: C5 (Homo sapiens, UniProt P01031); test: Biacore multi-cycle kinetics on human C5; type: binding; details: for binding to human C5: chemical knob domains and variants, result in words
Outline: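 SPR, multi-cycle kinetics: human C5 amine-coupled to CM5 chip (2000-3000 RU, pH 4.5 acetate). Serial peptide dilutions in HBS-EP, 240 s contact, 6000 s dissociation; 2M MgCl2 regeneration. Reference-subtracted data fitted to single-site binding model.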

[2] = relative to unmodified peptide
[3] = In vivo pharmacokinetics after intravenous bolus; details: rat, plasma; 1 mg/kg intravenous; male Sprague-Dawley rats; read-out: plasma clearance [C1p]
Procedure: Plasma pharmacokinetics was studied for each peptide in male Sprague-Dawley rats of a body weight between 324 and 425 g. Drug was administered intravenously via the tail vein. […] Blood samples were taken at 7 minutes, 15 minutes, 30 minutes, followed by 1, 2, 4, 8 and 24 hours. Blood was collected into Li Heparin tubes and spun to prepare plasma samples for bioanalysis. Bioanalytical data was analysed on an individual animal basis using Pharsight Phoenix 64 Build 8.1. Non-compartmental analysis was conducted and mean pharmacokinetic parameters for each drug calculated.

[4] = tested on: Alternative pathway C5b deposition; test: Alternative pathway C5b (neo-epitope) deposition ELISA, SVAR kit; type: biochemical, human; details: chemFE peptides, Example 10; result in words
Source text: (§1) To elucidate the functional consequences of the knob domain peptides binding to human C5, we performed complement activation assays using the SVAR complement activation ELISA which measured CP (Classical Pathway) and AP (Alternative Pathway) activation in human serum, through formation of the C5b neo-epitope. We also developed orthogonal ELISA assays which measured total complement and AP specific mediated C3b and MAC (Membrane Attack Complex) deposition. For all activation conditions, we also tracked C5a release via ELISA.
(§2) For the C5b ELISA, assays were run using the CP and AP Complement functional ELISA kits (SVAR), as per the manufacturer's protocol. For sample preparation: serum was diluted as per the respective protocol for the CP and AP assays. Titrations of peptides were prepared and allowed to incubate for 15 minutes at room temperature, prior to plating.
(§3) Functional activity of chemically derived knob domain peptides was confirmed in a complement activation ELISAs which measured inhibition of C5b neoepitope deposition.
(§4) Finally, we tested our constructs in AP and CP complement activation ELISAs, which measured C5b neoepitope deposition.
(§5) Complement ELISA: assays were run using the CP and AP Complement functional ELISA kits (SVAR, COMPL 300 RUO), as per the manufacturer's protocol. For sample preparation, serum was diluted as per the respective protocol for the CP and AP assays; serial dilutions of peptides were prepared and allowed to incubate with serum for 15 minutes at room temperature, prior to plating.

[5] = biological target: rat C5 protein (Rattus norvegicus, UniProt P08650); test: Biacore kinetics on rat C5 (cross-reactivity); type: binding; details: SPR
Procedure: Kinetics were measured using a Biacore 8K (GE Healthcare) with a CM5 chip, which was prepared as follows: EDC/NHS was mixed at 1:1 ratio (flow rate, 10 μL/min; contact time, 30 seconds), rat C5 protein at 1 ug/mL in pH 4.5 sodium-acetate buffer, were injected over flow cell one only (flow rate, 10 μL/min; contact time, 60 seconds). Final immobilization levels in the range of 2000-3000 response units (RU) were obtained, to yield theoretical Rmax values of ˜50-60 RU. Serial dilutions of peptide were prepared in HBS-EP buffer and injected (flow rate, 30 μL/min; contact time, 240 seconds; dissociation time, 6000 seconds). After each injection, the surface was regenerated with two sequential injections of 2M MgCl2 (flow rate, […]; contact time, 30 seconds). Binding to the reference surface was subtracted, and the data were fitted to a single site binding model, using Biacore evaluation software.

[6] = tested on: rabbit erythrocytes; test: Alternative pathway haemolysis assay; type: cell-based; details: normal human sera; result in words
Procedure: (§6) Haemolysis assays: For AP, 50 μL of 24% normal human sera (Complement Technology), 50 of 20 mM MgEGTA (Complement Technology), and 48 μL of GVB0 buffer (0.1% gelatin, […], 145 mM NaCl, 0.025% NaN3, pH 7.3, Complement Technology) were aliquoted into a single well of a 96-well tissue culture plate (USA Scientific) then mixed with 2 μL of inhibitors serially diluted in DMSO. Following equilibration for 15 minutes at room temperature, 50 μL of rabbit erythrocytes (Complement Technology), at 2.5×10^7 per well, were added to the plates, which were then incubated at 37° C. for 30 minutes. Plates were centrifuged at 1,000×g for 3 min and 100 μL of supernatant was collected, transferred to another 96-well tissue culture treated plate, and absorbance was measured at 412 nm. For CP, […], 48 μL of GVB++ buffer (0.1% gelatin, 5 mM Veronal, 145 mM NaCl, 0.025% NaN3, pH 7.3 with 0.15 mM CaCl2 and 0.5 mM MgCl2, Complement Technology) and 2 μL of inhibitors serially diluted in DMSO were aliquoted into a single well and equilibrated as described. Next, 100 μL of antibody-sensitized sheep red blood cells (Complement Technology) at 5×10^7 per well were added to the plate, which was then incubated at 37° C. for 1 hour. Samples were subsequently processed as described.

[7] = tested on: antibody-sensitized sheep red blood cells; test: Classical pathway haemolysis assay; type: cell-based; details: normal human sera; result in words
Procedure: as §6

[8] = tested on: Classical pathway C5b deposition; test: Classical pathway C5b (neo-epitope) deposition ELISA, SVAR kit; type: biochemical, human; details: chemFE peptides, Example 10; result in words
Source text: as §1, §2, §3, §4, §5

Chain of C5 (P01031 19-1676): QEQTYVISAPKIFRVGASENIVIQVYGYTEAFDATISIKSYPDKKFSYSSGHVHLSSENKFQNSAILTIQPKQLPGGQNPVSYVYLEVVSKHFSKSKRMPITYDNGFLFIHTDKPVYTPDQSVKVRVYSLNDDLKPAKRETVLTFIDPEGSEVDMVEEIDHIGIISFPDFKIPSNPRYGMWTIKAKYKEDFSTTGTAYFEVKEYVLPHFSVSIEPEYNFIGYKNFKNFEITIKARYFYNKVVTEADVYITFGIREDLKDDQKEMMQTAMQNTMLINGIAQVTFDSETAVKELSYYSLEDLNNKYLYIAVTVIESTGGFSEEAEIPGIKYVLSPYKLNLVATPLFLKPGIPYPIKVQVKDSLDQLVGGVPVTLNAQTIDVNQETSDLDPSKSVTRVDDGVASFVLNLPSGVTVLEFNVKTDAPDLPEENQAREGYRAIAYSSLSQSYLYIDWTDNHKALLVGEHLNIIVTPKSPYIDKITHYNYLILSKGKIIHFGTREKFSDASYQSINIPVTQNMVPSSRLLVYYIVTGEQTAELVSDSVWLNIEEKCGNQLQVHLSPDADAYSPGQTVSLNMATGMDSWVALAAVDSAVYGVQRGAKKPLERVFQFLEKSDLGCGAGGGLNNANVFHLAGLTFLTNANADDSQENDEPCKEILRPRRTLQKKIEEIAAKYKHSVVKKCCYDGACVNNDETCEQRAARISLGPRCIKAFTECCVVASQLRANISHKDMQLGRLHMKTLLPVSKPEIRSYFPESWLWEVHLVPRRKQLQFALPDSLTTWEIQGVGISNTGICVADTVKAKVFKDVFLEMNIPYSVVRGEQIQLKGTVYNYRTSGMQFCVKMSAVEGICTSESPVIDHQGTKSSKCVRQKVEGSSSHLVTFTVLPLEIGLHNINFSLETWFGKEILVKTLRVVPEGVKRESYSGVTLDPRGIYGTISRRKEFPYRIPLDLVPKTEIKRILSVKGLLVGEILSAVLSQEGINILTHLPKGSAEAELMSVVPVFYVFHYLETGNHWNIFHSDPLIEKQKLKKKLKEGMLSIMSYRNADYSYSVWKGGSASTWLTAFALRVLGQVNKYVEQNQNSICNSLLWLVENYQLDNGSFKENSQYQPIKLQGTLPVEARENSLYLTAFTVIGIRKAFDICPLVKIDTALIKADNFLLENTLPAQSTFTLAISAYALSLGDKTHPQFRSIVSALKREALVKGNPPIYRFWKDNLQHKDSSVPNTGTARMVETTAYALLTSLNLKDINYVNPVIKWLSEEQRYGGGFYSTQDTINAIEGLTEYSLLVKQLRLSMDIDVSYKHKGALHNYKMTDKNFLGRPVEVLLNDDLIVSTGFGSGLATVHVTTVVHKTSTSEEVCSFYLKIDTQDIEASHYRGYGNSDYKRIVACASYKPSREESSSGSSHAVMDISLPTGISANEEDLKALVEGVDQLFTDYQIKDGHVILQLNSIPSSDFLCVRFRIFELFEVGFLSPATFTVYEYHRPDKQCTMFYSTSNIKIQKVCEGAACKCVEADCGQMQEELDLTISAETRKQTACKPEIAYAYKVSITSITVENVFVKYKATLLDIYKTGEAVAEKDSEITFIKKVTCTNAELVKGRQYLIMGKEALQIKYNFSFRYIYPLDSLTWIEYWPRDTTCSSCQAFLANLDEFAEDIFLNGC
Chain of rat C5 protein (P08650 19-1681): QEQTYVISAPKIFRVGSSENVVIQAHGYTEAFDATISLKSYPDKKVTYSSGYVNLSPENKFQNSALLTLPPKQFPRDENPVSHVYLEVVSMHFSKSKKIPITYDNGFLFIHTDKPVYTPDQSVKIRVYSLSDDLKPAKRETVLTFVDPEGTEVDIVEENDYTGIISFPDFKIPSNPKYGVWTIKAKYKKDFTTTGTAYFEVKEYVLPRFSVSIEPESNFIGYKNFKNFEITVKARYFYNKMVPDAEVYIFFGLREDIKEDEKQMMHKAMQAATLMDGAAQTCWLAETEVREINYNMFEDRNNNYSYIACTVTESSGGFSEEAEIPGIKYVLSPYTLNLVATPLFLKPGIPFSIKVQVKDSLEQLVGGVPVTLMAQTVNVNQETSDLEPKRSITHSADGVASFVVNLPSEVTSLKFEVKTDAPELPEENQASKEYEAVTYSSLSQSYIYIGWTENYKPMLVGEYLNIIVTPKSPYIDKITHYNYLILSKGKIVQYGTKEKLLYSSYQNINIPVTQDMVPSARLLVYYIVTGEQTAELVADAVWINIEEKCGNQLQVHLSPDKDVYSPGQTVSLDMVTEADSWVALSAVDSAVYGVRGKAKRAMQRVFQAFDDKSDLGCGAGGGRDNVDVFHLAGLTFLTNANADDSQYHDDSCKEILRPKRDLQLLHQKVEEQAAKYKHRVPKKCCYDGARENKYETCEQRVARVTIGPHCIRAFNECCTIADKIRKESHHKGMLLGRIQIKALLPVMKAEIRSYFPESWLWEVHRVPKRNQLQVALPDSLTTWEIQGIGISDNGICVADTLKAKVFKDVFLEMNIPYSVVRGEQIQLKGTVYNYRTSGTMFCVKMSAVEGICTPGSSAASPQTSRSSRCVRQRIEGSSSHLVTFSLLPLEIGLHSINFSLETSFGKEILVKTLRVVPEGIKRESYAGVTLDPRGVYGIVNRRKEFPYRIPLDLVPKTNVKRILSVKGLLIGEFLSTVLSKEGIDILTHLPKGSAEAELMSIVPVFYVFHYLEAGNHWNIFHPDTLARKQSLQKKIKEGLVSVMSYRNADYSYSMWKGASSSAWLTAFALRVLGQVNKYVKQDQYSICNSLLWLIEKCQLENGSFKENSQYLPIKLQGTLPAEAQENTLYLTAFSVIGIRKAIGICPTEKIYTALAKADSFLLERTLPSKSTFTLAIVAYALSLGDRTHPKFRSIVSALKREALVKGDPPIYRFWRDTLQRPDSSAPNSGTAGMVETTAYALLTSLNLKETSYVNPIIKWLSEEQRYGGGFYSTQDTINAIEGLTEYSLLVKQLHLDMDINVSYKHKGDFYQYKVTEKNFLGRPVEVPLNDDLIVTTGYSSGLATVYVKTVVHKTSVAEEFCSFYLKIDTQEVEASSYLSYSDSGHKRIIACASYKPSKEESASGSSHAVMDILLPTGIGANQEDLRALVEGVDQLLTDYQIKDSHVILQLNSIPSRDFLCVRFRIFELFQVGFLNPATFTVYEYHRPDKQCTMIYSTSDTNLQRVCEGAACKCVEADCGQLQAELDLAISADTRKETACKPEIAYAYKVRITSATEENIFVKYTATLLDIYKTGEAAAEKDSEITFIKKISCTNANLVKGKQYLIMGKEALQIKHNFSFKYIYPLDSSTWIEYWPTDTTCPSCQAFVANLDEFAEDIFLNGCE

Substance | binding to human C5 [1] | solubility [2] | clearance [3] [mL/min/kg] | inhibition of AP, C5b deposition [4] | mean stoichiometric ratio ([1]; measured Rmax divided by theoretical Rmax, n = 3 experiments) | koff ([1]; read-out: mean Koff, multi-cycle kinetics, n = 3 experiments) [s⁻¹] | kon ([1]; read-out: mean Kon, multi-cycle kinetics, n = 3 experiments) [M⁻¹ s⁻¹] | cross reactivity with rat C5 protein [5] | inhibition of haemolysis, AP [6] | inhibition of haemolysis, CP [7] | inhibition of CP, C5b deposition [8]
Palmitoyl-GCPPGYKSGVDCSPGSECKWGCYAVDGRRYGGYGADSGVGS-OH (disulfide 2-18, 12-22) [K57 chemFE-Palmitoyl] | unaffected | reduced solubility | 0.8 | – | – | – | – | – | – | – | –
GCPPGYKSGVDCSPGSECKWGCYAVDGRRYGGYGADSGVGS-OH (disulfide 2-18, 12-22) [K57chemFE] | – | – | – | potent and fully efficacious inhibitor | 0.65 | 0.000579 | 260000 | specific for human C5 | potent and fully efficacious inhibitor | potent and fully efficacious inhibitor | potent and fully efficacious inhibitor
K8 chemFE cyclic: cyclic peptide from head-to-tail cyclisation of the K8chemFE knob domain (cyclo(VCPDGFNWGYGCAAGSSRFCTRHDWCCYDERADSHTYGFCTGNRV); also: disulphides formed by free energy method, pairing not given here) | bound human C5 | – | – | – | – | – | – | – | functionally active complement inhibitor | functionally active complement inhibitor | –
